Experiment: Human intestinal absorption in po dosed human
Settings: in vivo

Row | SMILES | Fa [%]
1 | CC#Cc1cn([C@@H]2O[C@H](CO)[C@@H](O)[C@@H]2O)c(=O)[nH]c1=O [NETIVUDINE] | 28
2 | Nc1cc(N2CCCCC2)nc(N)[n+]1[O-] [MINOXIDIL] | 98
3 | O=C1Cc2cc(CCN3CCN(c4nsc5ccccc45)CC3)c(Cl)cc2N1 [ZIPRASIDONE] | 60
4 | C=CCOc1ccccc1OCC(O)CNC(C)C (stereo not given) [OXPRENOLOL] | 95
5 | C[C@H](CS)C(=O)N1CCC[C@H]1C(=O)O [CAPTOPRIL] | 84
6 | N=C(N)NCC1COc2ccccc2O1 (stereo not given) [GUANOXAN] | 50
7 | N[C@@H](C(=O)N[C@@H]1C(=O)N2C(C(=O)O)=C(Cl)CC[C@H]12)c1ccccc1 [LORACARBEF ANHYDROUS] | 100
8 | Oc1ccc(C(O)C2CCCCN2)cc1O (stereo not given) [RIMITEROL] | 48
9 | O=C(O)c1cc(/N=N/c2ccc(O)c(C(=O)O)c2)ccc1O [OLSALAZINE] | 24
10 | COc1ccc(CCN(C)CCCC(C#N)(c2ccc(OC)c(OC)c2)C(C)C)cc1OC (stereo not given) | 97
11 | CCOC(=O)C1=C(C)NC(C)=C(C(=O)OC)C1c1cccc(Cl)c1Cl (stereo not given) [FELODIPINE] | 88
12 | NS(=O)(=O)c1cc(-c2nnn[nH]2)c(NCc2cccs2)cc1Cl [AZOSEMIDE] | 10
13 | CC(C)NCC(O)COc1cccc2[nH]ccc12 (stereo not given) [PINDOLOL] | 87
14 | Cc1cc(NC(=O)C2=C(O)c3ccccc3S(=O)(=O)N2C)no1 [ISOXICAM] | 100
15 | O=C1CN=C(c2ccccn2)c2cc(Br)ccc2N1 [BROMAZEPAM] | 84
16 | C=C[C@H]1C[N@@]2CC[C@H]1C[C@@H]2[C@@H](O)c1ccnc2ccc(OC)cc12 [QUINIDINE] | 81
17 | COc1ccc(Cl)cc1C(=O)NCCc1ccc(S(=O)(=O)NC(=O)NC2CCCCC2)cc1 [GLYBURIDE] | 100
18 | CO/N=C(\C(=O)N[C@@H]1C(=O)N2C(C(=O)O)=CCS[C@H]12)c1csc(N)n1 [CEFTIZOXIME] | 72
19 | Nc1ncnc2c1ncn2CCOCP(=O)(O)O [ADEFOVIR] | 16
20 | ClC(Cl)Cl [CHLOROFORM] | 100
21 | CC1(C)S[C@@H]2[C@H](NC(=O)Cc3ccccc3)C(=O)N2[C@H]1C(=O)O [PENICILLIN G] | 30
22 | O=C1O[C@H]([C@@H](O)CO)C(O)=C1O [ASCORBIC ACID] | 35

Row | SMILES | Fa [%]
23 | CO[C@H]1C[C@H](O[C@H]2CC[C@]3(C=O)[C@H]4CC[C@]5(C)[C@@H](C6=CC(=O)OC6)CC[C@]5(O)[C@@H]4CC[C@]3(O)C2)O[C@H](C)[C@H]1O [CYMARIN] | 47
24 | CCC[C@@H]1C[C@@H](C(=O)N[C@@H]([C@H]2O[C@H](SC)[C@H](O)[C@@H](O)[C@H]2O)[C@@H](C)O)N(C)C1 [LINCOMYCIN] | 28
25 | Cc1cn([C@H]2C[C@H](N=[N+]=[N-])[C@@H](CO)O2)c(=O)[nH]c1=O [ZIDOVUDINE] | 100
26 | CC1=C(C(=O)O)N2C(=O)[C@@H](NC(=O)[C@H](N)c3ccc(O)cc3)[C@H]2SC1 [CEFADROXIL] | 100
27 | CN1C(=O)C(O)N=C(c2ccccc2Cl)c2cc(Cl)ccc21 (stereo not given) [LORMETAZEPAM] | 100
28 | CO/N=C(\C(=O)N[C@@H]1C(=O)N2C(C(=O)OC(C)OC(C)=O)=C(COC(N)=O)CS[C@H]12)c1ccco1 (stereo not given in full) [CEFUROXIME AXETIL] | 44
29 | Cc1ccsc1C(=CCCN1CCC[C@@H](C(=O)O)C1)c1sccc1C [TIAGABINE] | 90
30 | CN(C)C(=N)N=C(N)N [METFORMIN] | 53
31 | CCCOC(C(=O)OC1CCN(C)CC1)(c1ccccc1)c1ccccc1 [PROPIVERINE] | 84
32 | CCOc1ccccc1OCC1CNCCO1 (stereo not given) [VILOXAZINE] | 98
33 | O=C(N[C@H](CO)[C@H](O)c1ccc([N+](=O)[O-])cc1)C(Cl)Cl [CHLORAMPHENICOL] | 90
34 | CC(C)NCC(O)c1ccc(NS(C)(=O)=O)cc1 (stereo not given) [SOTALOL] | 95
35 | N[C@@H]1[C@H]2CN(c3nc4c(cc3F)c(=O)c(C(=O)O)cn4-c3ccc(F)cc3F)C[C@@H]12 [TROVAFLOXACIN] | 88
36 | COc1cc([C@@H]2c3cc4c(cc3[C@@H](O[C@@H]3O[C@@H]5CO[C@@H](C)O[C@H]5[C@H](O)[C@H]3O)[C@H]3COC(=O)[C@H]23)OCO4)cc(OC)c1O [ETOPOSIDE] | 50
37 | CCN1CCCC1CNC(=O)c1cc(S(=O)(=O)CC)ccc1OC (stereo not given) [SULTOPRIDE] | 89
38 | COc1cccc(C2(O)CCCCC2CN(C)C)c1 (stereo not given) [TRAMADOL] | 90
39 | COC(=O)C1=C(C)NC(C)=C(C(=O)OCC(C)C)C1c1ccccc1[N+](=O)[O-] (stereo not given) [NISOLDIPINE] | 89
40 | O=C(c1ccccc1)c1ccc2n1CCC2C(=O)O (stereo not given) [KETOROLAC] | 90
41 | O=S(=O)([O-])CCS.[Na+] [MESNA] | 77
42 | N[C@@H](C(=O)N[C@@H]1C(=O)N2C(C(=O)O)=C(CSc3c[nH]nn3)CS[C@H]12)c1ccc(O)cc1 [CEFATRIZINE] | 75
43 | CCOC(=O)C(C)(C)Oc1ccc(Cl)cc1 [CLOFIBRATE] | 97
44 | Cn1c(=O)c2c(ncn2CCCNCC(O)c2cc(O)cc(O)c2)n(C)c1=O (stereo not given) [REPROTEROL] | 60

Row | SMILES | Fa [%]
45 | CC[C@H](C)C(=O)O[C@H]1C[C@H](O)C=C2C=C[C@H](C)[C@H](CC[C@@H](O)C[C@@H](O)CC(=O)O)[C@H]21 [PRAVASTATIN] | 34
46 | COc1cccc2c1C(=O)c1c(O)c3c(c(O)c1C2=O)C[C@@](O)(C(=O)CO)C[C@@H]3O[C@H]1C[C@H](N)[C@H](O)[C@H](C)O1 [DOXORUBICIN] | 12
47 | C=CC(N)CCC(=O)O (stereo not given) [VIGABATRIN] | 58
48 | CC(C)NCC(O)c1cc(O)cc(O)c1 (stereo not given) [METAPROTERENOL] | 44
49 | Nc1nc2c(ncn2COCCO)c(=O)[nH]1 [ACYCLOVIR] | 23
50 | Cc1cccc(C)c1OCC(C)N (stereo not given) [MEXILETINE] | 100
51 | NNC(=O)c1ccncc1 [ISONIAZID] | 80
52 | CN/C(=N/CCSCc1nc[nH]c1C)NC#N [CIMETIDINE] | 64
53 | Cc1nccn1CC1CCc2c(c3ccccc3n2C)C1=O (stereo not given) [ONDANSETRON] | 100
54 | O=C(O)c1cccnc1 [NIACIN] | 88
55 | O=c1[nH]c(=O)n([C@@H]2O[C@H](CO)[C@@H](O)[C@@H]2O)cc1/C=C/Br [SORIVUDINE] | 82
56 | CC1(C)O[C@@H]2[C@@H](CO[C@@]3(COS(N)(=O)=O)OC(C)(C)O[C@@H]23)O1 [TOPIRAMATE] | 86
57 | N=C(N)NC(=O)c1nc(Cl)c(N)nc1N [AMILORIDE] | 50
58 | CCn1cc(C(=O)O)c(=O)c2cc(F)c(N3CCN(C)CC3)cc21 [PEFLOXACIN] | 100
59 | CC(=O)OCC(CCn1cnc2cnc(N)nc21)COC(C)=O [FAMCICLOVIR] | 77
60 | CC(C(=O)O)c1ccc(C2CCCC(=NO)C2)cc1 (stereo not given) [XIMOPROFEN] | 98
61 | Cc1cn([C@H]2C=C[C@@H](CO)O2)c(=O)[nH]c1=O [STAVUDINE] | 100
62 | COc1ccc(C(CN(C)C)C2(O)CCCCC2)cc1 (stereo not given) [VENLAFAXINE] | 97
63 | CCCc1cc(=O)[nH]c(=S)[nH]1 [PROPYLTHIOURACIL] | 76
64 | CCc1nn(CCCN2CCN(c3cccc(Cl)c3)CC2)c(=O)n1CCOc1ccccc1 [NEFAZODONE] | 100
65 | CCCC(=O)Nc1ccc(OCC(O)CNC(C)C)c(C(C)=O)c1 (stereo not given) [ACEBUTOLOL] | 80

From ChEMBL document CHEMBL1157012, “Neural computational prediction of oral drug absorption based on CODES 2D descriptors” (Eur J Med Chem, 2010)
